Test: xn = mol fraction of the nth substance listed
Settings: 100 kPa, Liquid; for viscosity: Capillary tube (Ostwald / Ubbelohde) method; for speed of sound: Frequency=2 MHz, Single path-length method; for mass density: Vibrating tube method

C=COCCCC [1-(ethenyloxy)butane] + C=COC(C)=O
Settings	mass density, 303.15 K [kg/m3]	mass density, 308.15 K [kg/m3]	mass density, 313.15 K [kg/m3]	speed of sound, 303.15 K [m/s]	speed of sound, 308.15 K [m/s]	speed of sound, 313.15 K [m/s]	viscosity, 303.15 K [mPa·s]	viscosity, 308.15 K [mPa·s]	viscosity, 313.15 K [mPa·s]
x2 = 0	769	763.9	758.8	1086	1076	1066	0.386	0.373	0.352
x2 = 0.1022	779.6	774.4	769.1	1086	1076	1066	0.385	0.368	0.35
x2 = 0.2014	790.7	785.4	780	1086	1076	1065	0.381	0.364	0.344
x2 = 0.2948	801.9	796.5	791	1087	1075	1064	0.377	0.36	0.339
x2 = 0.4002	815.6	810	804.4	1087	1075	1064	0.374	0.357	0.338
x2 = 0.502	829.9	824.1	818.3	1087	1074	1062	0.372	0.355	0.336
x2 = 0.5997	844.6	838.7	832.8	1088	1074	1062	0.373	0.357	0.337
x2 = 0.6979	860.6	854.5	848.4	1088	1074	1061	0.375	0.358	0.338
x2 = 0.7949	877.7	871.6	865.3	1089	1074	1059	0.378	0.36	0.341
x2 = 0.8999	898	891.9	885.5	1090	1074	1057	0.383	0.365	0.346

C=COC(C)=O [vinyl acetate] + CC(C)OC(C)C
Settings	mass density, 303.15 K [kg/m3]	mass density, 308.15 K [kg/m3]	mass density, 313.15 K [kg/m3]	speed of sound, 303.15 K [m/s]	speed of sound, 308.15 K [m/s]	speed of sound, 313.15 K [m/s]	viscosity, 303.15 K [mPa·s]	viscosity, 308.15 K [mPa·s]	viscosity, 313.15 K [mPa·s]
x1 = 0.1031	727.4	722.1	716.5	990	970	948	0.308	0.293	0.28
x1 = 0.1977	741.4	736	730.4	996	976	955	0.313	0.297	0.284
x1 = 0.3004	757.8	752.3	746.6	1004	985	964	0.318	0.302	0.288
x1 = 0.4002	775	769.4	763.7	1013	993	972	0.324	0.307	0.294
x1 = 0.5001	793.8	788.1	782.3	1022	1002	982	0.33	0.313	0.299
x1 = 0.6027	814.8	809.1	803.2	1032	1012	992	0.338	0.32	0.306
x1 = 0.7001	836.9	831	825	1042	1024	1003	0.347	0.329	0.313
x1 = 0.801	861.9	856	849.8	1056	1038	1016	0.359	0.34	0.323
x1 = 0.9014	889.5	883.5	877.2	1072	1053	1032	0.372	0.353	0.335
x1 = 1	919.4	913.5	907.3	1092	1074	1054	0.388	0.37	0.352

C=COC(C)=O [vinyl acetate] + CCCCOCCCC
Settings	mass density, 303.15 K [kg/m3]	mass density, 308.15 K [kg/m3]	mass density, 313.15 K [kg/m3]	speed of sound, 303.15 K [m/s]	speed of sound, 308.15 K [m/s]	speed of sound, 313.15 K [m/s]	viscosity, 303.15 K [mPa·s]	viscosity, 308.15 K [mPa·s]	viscosity, 313.15 K [mPa·s]
x1 = 0.0956	767.4	763	758.2	1141	1123	1107	0.575	0.54	0.509
x1 = 0.1922	776.2	771.6	767	1136	1118	1100	0.549	0.517	0.489
x1 = 0.3008	787.4	782.6	777.8	1131	1112	1093	0.522	0.493	0.467
x1 = 0.3962	798.4	793.5	788.5	1126	1107	1087	0.499	0.472	0.447
x1 = 0.5008	812.2	807.1	801.9	1120	1102	1080	0.476	0.451	0.427
x1 = 0.5997	827.4	822	816.6	1115	1096	1074	0.455	0.431	0.409
x1 = 0.6995	845	839.4	833.7	1110	1091	1068	0.436	0.414	0.393
x1 = 0.7995	865.6	859.8	853.8	1104	1085	1063	0.417	0.398	0.379
x1 = 0.8998	890	883.8	877.6	1099	1080	1058	0.401	0.383	0.365
x1 = 1	919.4	913.5	907.3	1092	1074	1054	0.388	0.37	0.352

C=COC(C)=O [vinyl acetate] + COc1ccccc1
Settings	mass density, 303.15 K [kg/m3]	mass density, 308.15 K [kg/m3]	mass density, 313.15 K [kg/m3]	speed of sound, 303.15 K [m/s]	speed of sound, 308.15 K [m/s]	speed of sound, 313.15 K [m/s]	viscosity, 303.15 K [mPa·s]	viscosity, 308.15 K [mPa·s]	viscosity, 313.15 K [mPa·s]
x1 = 0.0981	979.4	974.6	969.5	1350	1329	1310	0.843	0.775	0.724
x1 = 0.199	974	969	963.8	1316	1294	1274	0.766	0.708	0.664
x1 = 0.3015	968.3	963.1	957.8	1283	1260	1239	0.696	0.647	0.609
x1 = 0.3972	962.6	957.4	951.9	1253	1230	1208	0.638	0.595	0.562
x1 = 0.5005	956.2	950.8	945.2	1223	1199	1177	0.583	0.546	0.515
x1 = 0.5979	949.8	944.2	938.5	1194	1171	1150	0.535	0.503	0.476
x1 = 0.6988	942.8	937	931.1	1167	1144	1122	0.492	0.464	0.439
x1 = 0.8029	935.1	929.2	923.1	1139	1118	1096	0.451	0.427	0.406
x1 = 0.9005	927.5	921.5	915.3	1115	1095	1074	0.418	0.397	0.377
x1 = 1	919.4	913.5	907.3	1092	1074	1054	0.388	0.37	0.352
